# Entries after “also recorded” stand apart in the source; their conditions may differ.
# What was measured:
# adult DRG neurons = assay: Rescue of dystrophic endballs and axonal growth of adult DRG neurons across an aggrecan gradient (FIG. 1b, c); type: cell-based, mice; details: for promotion of axonal growth / penetration across an aggrecan gradient / rescue / prevention of dystrophic endball formation: 20 μg/mL, adult DRG neurons on aggrecan gradient, FIG. 1 panel b; for axons invading the aggrecan rim that could pass the rim of aggrecan gradient: FIG. 1 panel c, left, comparable to chondroitinase ABC (C-ABC) digestion of chondroitin sulfate
# Method: Preparation of an aggrecan gradient spot on coverslip. Glass coverslips were coated with 100 μg/mL PLL overnight at room temperature, rinsed with sterile water and dried completely. Onto the coverslip, 2 μL of an aggrecan (0.4 mg/mL) and laminin (10 μg/mL) mixture in Ca^2+- and Mg^2+-free Hank's balanced salt solution (HBSS) (Invitrogen) was spotted and dried. Then, the coverslip was bathed in laminin ([…]) solution in HBSS until just before (i.e., at least 3 h before) cell plating at 37° C. The laminin solution was subsequently removed, and the cells were plated without allowing the surface of the coverslip to dry.
# DRG neuron primary culture. DRGs were dissected out of C57BL/6J (SLC) adult (12-16 weeks) female mice. The roots of isolated DRGs were trimmed in cold HBSS, collected in a centrifuge tube and spun down for 1 min at low speed (500 rpm). Then, the HBSS was removed. The tissues were incubated in collagenase-II (4 mg/mL)/dispase-II (4.67 mg/mL) in HBSS for 15 min at 37° C. After spinning down at low speed, the tissues were rinsed once with pre-warmed culture media consisting of Neurobasal-A (Gibco) with Gluta-MAX (Gibco), Anti-Anti (Gibco) and B-27 (Invitrogen), then spun down and triturated in fresh media. To refine neurons, the cell suspension was carefully overlaid onto 15% bovine serum albumin (BSA) in HBSS and spun down for 5 min at high speed (1000 rpm), and the supernatant was gently removed. The DRG cells were rinsed once and suspended in the media. The DRG cells were plated onto coverslips in the media.
# Immunostaining. DRG neurons were fixed in ice-cold methanol for 15 min at −30° C. The fixed samples were then rinsed three times with phosphate buffered saline (PBS) and incubated in a blocking solution containing 5% (v/v) goat serum (Vector) and 0.2% (v/v) Triton-X 100 (Sigma) for 90 min at room temperature. For neuron-specific class III β-tubulin (Tuj1) staining, samples were bathed in 1:1000 mouse monoclonal Tuj1 (Covance, 801201) diluted in PBS containing 2.5% (v/v) normal goat serum overnight at 4° C. After three washes with PBS, neurons were incubated with 1:250 Alexa488-conjugated goat anti-mouse IgG (Molecular Probes, A11001) dissolved in PBS containing 2.5% (v/v) goat serum for 2 h at room temperature.
# RPTPσ = assay: Activation / phosphorylation of RPTPσ by sulfated octasaccharides (Western blot, densitometric analysis, FIG. 1a); type: cell-based; details: 10 μg/mL, 15 min; FIG. 1 panel a
# Method: SDS-PAGE and Western blotting. Cells were lysed with Tris-buffered saline (TBS), 1% Triton-X, Complete Mini Protease Inhibitor Cocktail (Roche) and Phostop Phosphatase Inhibitor Cocktail (Roche). Lysates were incubated on ice for 10 min and centrifuged at 20000 g for 10 min at 4° C. Supernatants were mixed with 4×SDS sample buffer and boiled for 5 min.
# All samples were run on 5-20% gradient gel (Wako) and transferred to nitrocellulose membranes (GE Healthcare). After blocking with 5% non-fat dry milk or BSA, the membranes were blotted with primary antibodies. Primary antibodies used in this work included anti-EGFR pY1174 (Invitrogen, 44794G), anti-HA (Roche, clone 3F10), 4G10 Platinum (Millipore, 05-1050) and anti-β-actin (Sigma Aldrich, clone AC-15). All primary antibodies were used at 1:1000 dilution. All secondary antibodies conjugated with horseradish peroxidase were from Jackson ImmunoResearch and used at 1:3000 dilution. Membranes were developed with Novex ECL (Invitrogen) or ECL Plus Substrate (Pierce).
Compound,promotion of axonal growth / penetration across an aggrecan gradient (adult DRG neurons),rescue / prevention of dystrophic endball formation (adult DRG neurons),axons invading the aggrecan rim that could pass the rim of aggrecan gradient (adult DRG neurons),promotion of axonal growth / penetration across an aggrecan gradient (adult DRG neurons; listed as HS 14),rescue / prevention of dystrophic endball formation (adult DRG neurons; listed as HS 14),activation of RPTPσ (inducing phosphorylation of RPTPσ) (RPTPσ)
5-Aminopentyl (2-deoxy-2-sulfamido-6-O-sulfonato-α-D-glucopyranosyl)-(1→4)-α-L-idopyranosiduronyl-(1→4)-(2-deoxy-2-sulfamido-6-O-sulfonato-α-D-glucopyranosyl)-(1→4)-β-D-glucopyranosiduronyl-(1→4)-(2-deoxy-2-sulfamido-6-O-sulfonato-α-D-glucopyranosyl)-(1→4)-α-L-idopyranosiduronyl-(1→4)-(2-deoxy-2-sulfamido-6-O-sulfonato-α-D-glucopyranosyl)-(1→4)-β-D-glucopyranosiduronate [HS16],facilitated their penetration across the gradient,prevent formation of dystrophic endballs,Nearly half,–,–,–
NCCCCCO[C@@H]1O[C@H](C(=O)O)[C@@H](O[C@H]2O[C@H](CO)[C@@H](O[C@@H]3O[C@@H](C(=O)O)[C@@H](O[C@H]4O[C@H](CO)[C@@H](O[C@@H]5O[C@H](C(=O)O)[C@@H](O[C@H]6O[C@H](CO)[C@@H](O[C@@H]7O[C@@H](C(=O)O)[C@@H](O[C@H]8O[C@H](CO)[C@@H](O)[C@H](O)[C@H]8NS(=O)(=O)O)[C@H](O)[C@H]7OS(=O)(=O)O)[C@H](O)[C@H]6NS(=O)(=O)O)[C@H](O)[C@H]5OS(=O)(=O)O)[C@H](O)[C@H]4NS(=O)(=O)O)[C@H](O)[C@H]3OS(=O)(=O)O)[C@H](O)[C@H]2NS(=O)(=O)O)[C@H](O)[C@H]1OS(=O)(=O)O [HS14],promoted axonal growth,rescued dystrophic endball formation,Nearly half,facilitated their penetration across the gradient,prevent formation of dystrophic endballs,capable of inducing phosphorylation of RPTPσ; also recorded: activated RPTPσ
5-Aminopentyl (2-deoxy-2-sulfamido-α-D-glucopyranosyl)-(1→4)-α-L-idopyranosiduronyl-(1→4)-(2-deoxy-2-sulfamido-α-D-glucopyranosyl)-(1→4)-β-D-glucopyranosiduronyl-(1→4)-(2-deoxy-2-sulfamido-α-D-glucopyranosyl)-(1→4)-α-L-idopyranosiduronyl-(1→4)-(2-de oxy-2-sulfamido-α-D-glucopyranosyl)-(1→4)-β-D-glucopyranosiduronate [HS10],–,–,–,–,–,capable of inducing phosphorylation of RPTPσ
